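Results reflect a 48-hour exposure of cells in 96-well plates to compound at five concentrations. GI50 marks 50% less growth. TGI is the concentration that stops growth completely.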
How the values were obtained:
Assay in all cases: inhibition of tumour cell growth, NCI panel, 48 h
SN12C renal = system: SN12C renal
MDA-MB-435 = system: MDA-MB-435
BT-549 breast = system: BT-549 breast
A549 NSCLC = system: A549 NSCLC
COLO 205 colon = system: COLO 205 colon
SW-620 colon = system: SW-620 colon
NCI/ADR-RES ovarian = system: NCI/ADR-RES ovarian
U251 CNS = system: U251 CNS
MALME-3M melanoma = system: MALME-3M melanoma
DU-145 prostate = system: DU-145 prostate
HT29 colon = system: HT29 colon
IGROV1 ovarian = system: IGROV1 ovarian
HOP-62 NSCLC = system: HOP-62 NSCLC
LOX IMVI melanoma = system: LOX IMVI melanoma
SK-OV-3 ovarian = system: SK-OV-3 ovarian
SK-MEL-2 melanoma = system: SK-MEL-2 melanoma
MCF7 breast = system: MCF7 breast
OVCAR-8 ovarian = system: OVCAR-8 ovarian
PC-3 prostate = system: PC-3 prostate
SK-MEL-28 melanoma = system: SK-MEL-28 melanoma
SF-295 CNS = system: SF-295 CNS
NCI-H460 lung = system: NCI-H460 lung
OVCAR-4 ovarian = system: OVCAR-4 ovarian
HL-60(TB) leukemia = system: HL-60(TB) leukemia
TK-10 renal = system: TK-10 renal
MOLT-4 leukemia = system: MOLT-4 leukemia
HCT-116 colon = system: HCT-116 colon
M14 melanoma = system: M14 melanoma
RPMI-8226 leukemia = system: RPMI-8226 leukemia

With C[n+]1c(-c2ccccc2)c2cc(N)ccc2c2ccccc21 the GI50 (SN12C renal) was 2.13 µM, the TGI (SN12C renal) was 20.2 µM and the GI50 (MDA-MB-435) was 3.22 µM. The TGI (MDA-MB-435) was 14.2 µM, the GI50 (BT-549 breast) was 2.44 µM and the TGI (BT-549 breast) was 16.7 µM. For the same compound, the GI50 (A549 NSCLC) was 5.1 µM, the TGI (A549 NSCLC) was greater than 47.7 µM and the GI50 (COLO 205 colon) was 1.97 µM. For the same compound, the TGI (COLO 205 colon) was 6 µM, the GI50 (SW-620 colon) was 3.38 µM and the TGI (SW-620 colon) was 50.5 µM. The GI50 (NCI/ADR-RES ovarian) was greater than 100 µM, the TGI (NCI/ADR-RES ovarian) was greater than 100 µM and the GI50 (U251 CNS) was 1.39 µM. The TGI (U251 CNS) was greater than 44.3 µM, the GI50 (MALME-3M melanoma) was 1.98 µM and the TGI (MALME-3M melanoma) was 6.63 µM. The GI50 (DU-145 prostate) was 4.12 µM, the TGI (DU-145 prostate) was 57.3 µM and the GI50 (HT29 colon) was 3.45 µM. The TGI (HT29 colon) was 22.3 µM, the GI50 (IGROV1 ovarian) was 5.78 µM and the TGI (IGROV1 ovarian) was greater than 44.2 µM. For the same compound, the GI50 (HOP-62 NSCLC) was 7.13 µM, the TGI (HOP-62 NSCLC) was 38.2 µM and the GI50 (LOX IMVI melanoma) was 4.16 µM. It also gave a TGI (LOX IMVI melanoma) greater than 70.7 µM, a GI50 (SK-OV-3 ovarian) of 11.7 µM and a TGI (SK-OV-3 ovarian) greater than 91.9 µM. For the same compound, the GI50 (SK-MEL-2 melanoma) was 6.08 µM, the TGI (SK-MEL-2 melanoma) was 32.9 µM and the GI50 (MCF7 breast) was 2.43 µM. It also gave a TGI (MCF7 breast) of 17.9 µM, a GI50 (OVCAR-8 ovarian) of 12.4 µM and a TGI (OVCAR-8 ovarian) greater than 100 µM. For the same compound, the GI50 (PC-3 prostate) was 4.45 µM, the TGI (PC-3 prostate) was 31.8 µM and the GI50 (SK-MEL-28 melanoma) was 2.19 µM. The TGI (SK-MEL-28 melanoma) was 4.95 µM, the GI50 (SF-295 CNS) was 5.68 µM and the TGI (SF-295 CNS) was greater than 78.1 µM. For the same compound, the GI50 (NCI-H460 lung) was 3.2 µM, the TGI (NCI-H460 lung) was 26.4 µM and the GI50 (OVCAR-4 ovarian) was 2.84 µM. It also gave a TGI (OVCAR-4 ovarian) of 16 µM, a GI50 (HL-60(TB) leukemia) of 6.01 µM and a TGI (HL-60(TB) leukemia) of 25.1 µM. For the same compound, the GI50 (TK-10 renal) was 8.69 µM, the TGI (TK-10 renal) was greater than 59.5 µM and the GI50 (MOLT-4 leukemia) was 1.99 µM. The TGI (MOLT-4 leukemia) was 20.5 µM, the GI50 (HCT-116 colon) was 2.75 µM and the TGI (HCT-116 colon) was 44.6 µM. For the same compound, the GI50 (M14 melanoma) was 8.94 µM, the TGI (M14 melanoma) was 32.7 µM and the GI50 (RPMI-8226 leukemia) was 1.64 µM.
